Results from PubChem BioAssay AID256 (DTP/NCI, 2004).
Inconclusive results and toxic doses are left out. Rule for the calls: active = survival T/C of 150% or more; inactive = T/C below 125% in these data.

System: CD2F1 mice, L1210 leukemia ip, survival T/C
Assay: NCI In Vivo Anticancer Drug Screen. Data for tumor model L1210 Leukemia (intraperitoneal) in CD2F1 (CDF1) mice
Settings: endpoint: mean survival time, higher = longer survival
Procedure, shortened: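 Activity against a transplanted murine tumor was judged by comparing the compound group with a vehicle group. The outcome in the treated animals was divided by that in the controls.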

[1] = dose: 100.0 mg/kg/injection, schedule: Q04DX003 (ip), vehicle: Klucel (hydroxypropylcellulose) (HPC)
[2] = dose: 200.0 mg/kg/injection, schedule: Q04DX003 (ip), vehicle: Klucel (hydroxypropylcellulose) (HPC)
[3] = dose: 400.0 mg/kg/injection, schedule: Q04DX003 (ip), vehicle: Klucel (hydroxypropylcellulose) (HPC)
[4] = dose: 100.0 mg/kg/injection, schedule: Q01DX001 (ip), vehicle: saline with Tween-80
[5] = dose: 200.0 mg/kg/injection, schedule: Q01DX001 (ip), vehicle: saline with Tween-80
[6] = dose: 400.0 mg/kg/injection, schedule: Q01DX001 (ip), vehicle: saline with Tween-80
[7] = dose: 100.0 mg/kg/injection, schedule: Q04DX003 (ip), vehicle: saline with Tween-80

Measured: T/C

C#CCOC(=O)Nc1cccc2ccccc12
inactive: [1] 100 % of control | [2] 96 % of control | [3] 94 % of control

CC(C)C(Nc1sc([N+](=O)[O-])cc1[N+](=O)[O-])C(=O)O (stereo unspecified)
inactive: [4] 90 % of control | [5] 102 % of control | [6] 107 % of control

CCCCCCCCCCC(=O)CCCCCC
inactive: dose: 100.0 mg/kg/injection, schedule: Q04DX003 (ip), vehicle: other 89 % of control | dose: 200.0 mg/kg/injection, schedule: Q04DX003 (ip), vehicle: other 92 % of control | dose: 400.0 mg/kg/injection, schedule: Q04DX003 (ip), vehicle: other 118 % of control

CCCCNCC(C)C(=O)OC (stereo unspecified)
inactive: [7] 98 % of control | dose: 200.0 mg/kg/injection, schedule: Q04DX003 (ip), vehicle: saline with Tween-80 98 % of control | dose: 400.0 mg/kg/injection, schedule: Q04DX003 (ip), vehicle: saline with Tween-80 102 % of control

O=[N+]([O-])c1ccc2cn[nH]c2c1
inactive: dose: 100.0 mg/kg/injection, schedule: Q01DX001 (ip), vehicle: alcohol 92 % of control | dose: 200.0 mg/kg/injection, schedule: Q01DX001 (ip), vehicle: alcohol 98 % of control | dose: 400.0 mg/kg/injection, schedule: Q01DX001 (ip), vehicle: alcohol 93 % of control

CCc1nc(N)nc(N)n1
inactive: dose: 50.0 mg/kg/injection, schedule: Q01DX009 (ip), vehicle: saline 104 % of control | dose: 100.0 mg/kg/injection, schedule: Q01DX009 (ip), vehicle: saline 100 % of control | dose: 200.0 mg/kg/injection, schedule: Q01DX009 (ip), vehicle: saline 104 % of control

c1ccc(P2(c3ccccc3)=NP(c3ccccc3)(c3ccccc3)=NP(c3ccccc3)(c3ccccc3)=N2)cc1
inactive: dose: 100.0 mg/kg/injection, schedule: Q04DX003 (ip), vehicle: saline 102 % of control | dose: 200.0 mg/kg/injection, schedule: Q04DX003 (ip), vehicle: saline 94 % of control | dose: 400.0 mg/kg/injection, schedule: Q04DX003 (ip), vehicle: saline 96 % of control

CC(C)(C)N1CCOCC1
inactive: [7] 100 % of control

O=C(CCOP(=O)(N(CCCl)CCCl)N1CC1)OCc1ccccc1 (stereo unspecified)
inactive: dose: 25.0 mg/kg/injection, schedule: Q01DX009 (ip), vehicle: Klucel (hydroxypropylcellulose) (HPC) 97 % of control | dose: 50.0 mg/kg/injection, schedule: Q01DX009 (ip), vehicle: Klucel (hydroxypropylcellulose) (HPC) 94 % of control | dose: 100.0 mg/kg/injection, schedule: Q01DX009 (ip), vehicle: Klucel (hydroxypropylcellulose) (HPC) 97 % of control | dose: 125.0 mg/kg/injection, schedule: Q01DX001 (ip), vehicle: Klucel (hydroxypropylcellulose) (HPC) 98 % of control | dose: 200.0 mg/kg/injection, schedule: Q01DX009 (ip), vehicle: Klucel (hydroxypropylcellulose) (HPC) 97 % of control | dose: 250.0 mg/kg/injection, schedule: Q01DX001 (ip), vehicle: Klucel (hydroxypropylcellulose) (HPC) 107 % of control | dose: 400.0 mg/kg/injection, schedule: Q01DX009 (ip), vehicle: Klucel (hydroxypropylcellulose) (HPC) 107 % of control | dose: 500.0 mg/kg/injection, schedule: Q01DX001 (ip), vehicle: Klucel (hydroxypropylcellulose) (HPC) 103 % of control | dose: 1000.0 mg/kg/injection, schedule: Q01DX001 (ip), vehicle: Klucel (hydroxypropylcellulose) (HPC) 95 % of control

CCOC(=N)c1ccccc1
inactive: [4] 94 % of control | [1] 103 % of control | [5] 97 % of control | [2] 101 % of control | [6] 102 % of control | [3] 105 % of control

O=C1/C(=C/C2CCC3CCCCC3[N-]2)N2CCC1CC2.[Cl][Co][Cl] (stereo unspecified)
inactive: dose: 9.4 mg/kg/injection, schedule: Q04DX003 (ip), vehicle: saline 102 % of control | dose: 18.8 mg/kg/injection, schedule: Q04DX003 (ip), vehicle: saline 100 % of control | dose: 37.5 mg/kg/injection, schedule: Q04DX003 (ip), vehicle: saline 109 % of control

CCOC(=O)Nc1cc(NC(c2ccc(Cl)cc2)c2ccc(Cl)cc2)c2[nH]cnc2n1
inactive: dose: 75.0 mg/kg/injection, schedule: Q01DX001 (ip), vehicle: other 117 % of control
